Test results as given in patent US5093505A, “Novel heterocyclic compound, carcinostatic agent, and carcinoma controlling method” (Wakunaga Seiyaku Kabushiki Kaisha, priority 1989, dated 1992).
Like-named read-outs stand apart in the source and are kept apart here.

Assays:
[1] = Solubility of compound (1); assay type: physicochemical
in vivo [2] = assay: in vivo; set-up: species or system rats; conditions: rat, po
in vivo [3] = assay: in vivo; set-up: species or system mice; conditions: mouse, po
HeLa cells = assay: Anti-carcinogenesis-promoter action: inhibition of TPA-promoted phospholipid synthesis (32Pi uptake) in HeLa cells; assay type: cell-based; conditions: Homo sapiens, read-out: Inhibition (%) of cell phospholipid synthesis promotion by TPA
Description: A sample (50 μg/ml) was added to HeLa cells on the second day of cultivation. After 24 hours, TPA (5×10^-8 M) and ^32 Pi (50 μci/culture) were added at the same time. After 4 hours, a phospholipid fraction was extracted to determine the radioactivity of ^32 Pi taken in the fraction.

[4] = test system: mouse skin two-stage carcinogenesis; assay: Inhibition of promotion stage of mouse skin in vivo two-stage carcinogenesis (DMBA/TPA); set-up: species or system ICR female mice; conditions: 1 mg applied, twice a week, 1 μg TPA
Description: A compound was examined whether it could inhibit the promotion stage of mouse skin in vivo two-stage carcinogenesis. More particularly, a group of 15 ICR female mice was tested by once applying 100 μg of DMBA as an initiator to the skin of each mouse for initiation of carcinogenesis and then applying a test solution (identified below) twice a week. Inhibition of carcinogenesis was examined during the test which continued for 18 weeks in total. The promoter used was TPA.
1 mg of compound (1) applied

[5] = test system: gastric carcinoma cells HGC-27; assay: Inhibition against gastric carcinoma cells with time; assay type: cell-based; conditions: 25 μg/ml, number of cells with time
Description: In a dish having a diameter of 3.5 cm, about 2×10^4 gastric carcinoma cells HGC-27 were spread and cultured. After one day, compound (1) was added to the culture in a concentration of 25 μg/ml and the number of cells was counted with the lapse of time. The results are shown in FIG. 5 in which the number of cells is plotted relative to the culturing time.

[6] = test system: gastric carcinoma cells HGC-27; assay: Inhibition against gastric carcinoma cells in varying concentrations; assay type: cell-based; conditions: two days
Description: In a dish having a diameter of 3.5 cm, about 2×10^5 gastric carcinoma cells HGC-27 were spread and cultured. After one day, compound (1) was added to the culture in varying concentrations of 5, 10, 25, 50, and 75 μg/ml. The number of cells was counted after two days. The results are shown in FIG. 6 in which the number of cells is plotted relative to the concentration of compound (1).

[7] = test system: pancreatic carcinoma cells PANC-1; assay: Inhibition against other carcinoma cells: PANC-1; assay type: cell-based, human; conditions: PANC-1, 50 μg/ml
Description: (§1) Tested were three types of human carcinoma cells, pancreatic carcinoma cells PANC-1, cervical carcinoma cells HeLa, and neuroblastoma cells GOTO. For each type, about 2×10^5 cells were spread and cultured in a dish having a diameter of 3.5 cm. After one day, compound (1) was added to the culture in a concentration of 50 μg/ml. The number of cells was counted after two days.

[8] = test system: cervical carcinoma cells HeLa; assay: Inhibition against other carcinoma cells: HeLa; assay type: cell-based, human; conditions: 50 μg/ml
Description: as §1

neuroblastoma cells GOTO = assay: Inhibition against other carcinoma cells: GOTO; assay type: cell-based, human; conditions: 50 μg/ml
Description: as §1

[9] = sample 50 μg/ml, TPA 5×10^-8 M, HeLa cells
[10] = Homo sapiens, 48 h, two days, read-out: Number of cells, Test group/Control

For CCCCCc1oc(C)c(OC)c(=O)c1O [Compound (1), 3-hydroxy-6-methyl-5-methoxy-2-pentyl-4H-pyran-4-one], the “solubility in organic solvents” value ([1]; methanol, acetone, chloroform, hexane, and ethyl acetate) was “soluble”, the solubility in water ([1]; water) was “difficultly soluble” and the LD50 (in vivo [2]) was no less than 1000 mg/kg. The LD50 (in vivo [3]) was no less than 1000 mg/kg, the inhibition at 50 µg/mL (HeLa cells; [9]) was 83% and the “average number of carcinomas per mouse” value ([4]; 18th week (control 2.38)) was 0.22. The “percentage of mice in which carcinomas developed” value ([4]; 18th week (control 50%)) was 13%, the “inhibition of propagation of gastric carcinoma cells HGC-27” value [5] was “fully effective in inhibiting the propagation” and the “concentration dependence of inhibitory effect on gastric carcinoma cells HGC-27” value ([6]; 5, 10, 25, 50, and 75 μg/ml) was “dependent on its concentration or dose”. The minimal effective concentration ([6]; Homo sapiens, HGC-27, 48 h, 5 to 75 μg/ml, read-out: concentration with significant inhibitory effect on gastric carcinoma cells HGC-27) was no more than 5 µg/mL, the activity at 50 µg/mL [7, 10] was 27.3% and the “Number of cells (×10^5), Test group” value ([7]; two days (control 8.95)) was 2.45 ×10^5. For the same molecule, the “Number of cells (×10^5), Test group” value ([8]; two days (control 11.20)) was 4.70 ×10^5, the activity at 50 µg/mL [8, 10] was 42% and the “Number of cells (×10^5), Test group” value (neuroblastoma cells GOTO; two days (control 10.95)) was 4.85 ×10^5. It also gave an activity at 50 µg/mL (neuroblastoma cells GOTO; Homo sapiens, Neuroblastoma cell, 48 h, two days, read-out: Number of cells, Test group/Control) of 44.3%.
Molecule CCCCCc1oc(C)c(OC)c(=O)c1OC [Compound (2), 6-methyl-3,5-dimethoxy-2-pentyl-4H-pyran-4-one] has an inhibition at 50 µg/mL (HeLa cells; [9]) of 65.3%.
CCCCCc1oc(C)c(OC)c(=S)c1O [Compound (3), 3-hydroxy-6-methyl-5-methoxy-2-pentyl-4H-pyran-4-thione] gave an inhibition at 50 µg/mL (HeLa cells; [9]) of 75%.
For CCCCCC1=NC(C)=C(OC)C(=O)C1O (stereo not drawn) [Compound (4), 3-hydroxy-6-methyl-5-methoxy 2-pentyl-4-pyridone], the inhibition at 50 µg/mL (HeLa cells; [9]) was 51.2%.
With CCCCCc1c(O)c(=O)c(OC)c(C)n1C [Compound (5), 3-hydroxy-1,6-dimethyl-5-methoxy 2-pentyl-4-pyridone] the inhibition at 50 µg/mL (HeLa cells; [9]) was 24.9%.
Molecule CCCCCc1c(O)c(=S)c(OC)c(C)n1C [Compound (7), 3-hydroxy-1,6-dimethyl-5-methoxy-2-pentyl 4-pyridinethione] has an inhibition at 50 µg/mL (HeLa cells; [9]) of 70.6%.
Molecule Cc1occc(=O)c1O [Compound (8), 3-hydroxy-2-methyl 4H-pyran-4-one] has an inhibition at 50 µg/mL (HeLa cells; [9]) of 3.1%.
Cc1occc(=S)c1O [Compound (9), 3-hydroxy-2-methyl-4H-pyran-4-thione] gave an inhibition at 50 µg/mL (HeLa cells; [9]) of 0%.
For O=c1cc(C=Cc2ccccc2)occ1O [Compound (10), 3-hydroxy-6-styryl-4H-pyran-4-one], the inhibition at 50 µg/mL (HeLa cells; [9]) was 59.3%.
With COc1ccc(C=Cc2cc(=O)c(O)co2)cc1 [Compound (11), 3-hydroxy-6-(p-methoxystyryl)-4H-pyran-4-one] the inhibition at 50 µg/mL (HeLa cells; [9]) was 72.2%.
Work on O=c1cc(C=Cc2ccc(Cl)cc2)occ1O [Compound (12), 3-hydroxy-6-(p-chlorostyryl)-4H-pyran-4-one] yielded an inhibition at 50 µg/mL (HeLa cells; [9]) of 90%.
O=c1cc(CO)occ1O [Compound (13), 5-hydroxy-2-hydroxymethyl-4H-pyran-4-one] gave an inhibition at 50 µg/mL (HeLa cells) of 1.6%.
